Test results reported in ChEMBL document CHEMBL5550160, “Leveraging a rationally designed veliparib-based anilide eliciting anti-leukemic effects for the design of pH-responsive polymer nanoformulation” (Eur J Med Chem, 2024).
pIC50: −log10 of the molar value. Activity calls are given as the source filed them. The calls are words filed in the database; no cut-off is given here.

Assays:
HL-60 [1] = experiment: Upregulation of gammaH2AX protein expression in human HL-60 cells at 0.5 to 1 times IC50 by Western blot analysis; type: functional, cell-based
A549 = experiment: cells; type: functional, cell-based; conditions: Homo sapiens
Description: Antiproliferative activity against human A549 cells assessed as inhibition of cell growth by MTT assay

HL-60 [2] = experiment: Downregulation of HDAC2 protein expression in human HL-60 cells at 0.5 to 1 times IC50 by Western blot analysis; type: functional, cell-based
[3] = biological target: Histone deacetylase 9 (Homo sapiens) (UniProt Q9UKV0); experiment: Inhibition of HDAC9 (unknown origin) assessed as residual activity at 1.23 x 10^-7M (reference value: 97.55%); conditions: dose 1.23 10^-7M
Sequence of Histone deacetylase 9 (Homo sapiens) (Q9UKV0 whole entry): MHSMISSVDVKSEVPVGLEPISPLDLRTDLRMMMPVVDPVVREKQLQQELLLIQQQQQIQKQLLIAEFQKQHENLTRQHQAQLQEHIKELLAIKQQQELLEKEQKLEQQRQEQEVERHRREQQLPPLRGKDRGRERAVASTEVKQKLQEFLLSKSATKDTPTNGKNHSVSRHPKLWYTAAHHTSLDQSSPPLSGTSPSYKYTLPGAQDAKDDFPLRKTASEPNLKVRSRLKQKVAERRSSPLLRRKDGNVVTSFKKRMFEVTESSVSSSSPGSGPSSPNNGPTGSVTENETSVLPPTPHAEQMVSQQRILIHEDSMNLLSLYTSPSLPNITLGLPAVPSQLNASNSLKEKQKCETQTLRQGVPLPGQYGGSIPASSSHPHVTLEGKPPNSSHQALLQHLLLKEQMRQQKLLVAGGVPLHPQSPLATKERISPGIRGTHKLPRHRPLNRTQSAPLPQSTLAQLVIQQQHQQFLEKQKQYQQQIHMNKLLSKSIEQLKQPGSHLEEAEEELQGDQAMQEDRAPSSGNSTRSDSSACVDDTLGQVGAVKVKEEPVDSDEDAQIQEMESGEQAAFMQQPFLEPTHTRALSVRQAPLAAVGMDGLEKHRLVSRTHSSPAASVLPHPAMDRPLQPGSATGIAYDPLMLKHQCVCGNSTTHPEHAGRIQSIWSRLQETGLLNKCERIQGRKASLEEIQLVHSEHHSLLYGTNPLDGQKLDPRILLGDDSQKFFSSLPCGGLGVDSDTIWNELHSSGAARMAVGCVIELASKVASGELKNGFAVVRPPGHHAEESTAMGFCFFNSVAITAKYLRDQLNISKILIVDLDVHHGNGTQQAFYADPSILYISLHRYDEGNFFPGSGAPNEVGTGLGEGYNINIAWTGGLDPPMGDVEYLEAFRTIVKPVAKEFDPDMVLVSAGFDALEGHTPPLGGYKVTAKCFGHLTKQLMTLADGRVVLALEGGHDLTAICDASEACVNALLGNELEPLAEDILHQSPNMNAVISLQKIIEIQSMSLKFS

Histone deacetylase 2 = Histone deacetylase 2 (Homo sapiens, UniProt Q92769); experiment: Inhibition of HDAC2 (unknown origin) assessed as residual activity at 4.12 x 10^-8M (reference value: 99.81%); conditions: dose 4.12 10^-8M
Sequence of Histone deacetylase 2 (Q92769 whole entry, the tested form may be a part): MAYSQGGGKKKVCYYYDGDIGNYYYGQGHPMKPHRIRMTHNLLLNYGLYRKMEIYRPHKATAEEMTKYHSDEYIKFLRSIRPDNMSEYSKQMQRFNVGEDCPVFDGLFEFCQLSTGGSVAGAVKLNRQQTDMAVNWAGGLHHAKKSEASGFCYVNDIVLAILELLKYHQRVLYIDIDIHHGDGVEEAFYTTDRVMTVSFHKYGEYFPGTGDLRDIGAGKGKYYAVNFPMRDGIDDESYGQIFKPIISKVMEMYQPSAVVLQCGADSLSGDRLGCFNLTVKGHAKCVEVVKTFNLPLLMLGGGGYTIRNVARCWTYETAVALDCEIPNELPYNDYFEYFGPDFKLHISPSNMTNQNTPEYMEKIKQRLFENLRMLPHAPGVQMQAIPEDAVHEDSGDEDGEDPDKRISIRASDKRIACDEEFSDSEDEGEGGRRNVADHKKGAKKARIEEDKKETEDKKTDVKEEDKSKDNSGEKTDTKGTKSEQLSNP

Histone deacetylase 1 = Histone deacetylase 1 (Homo sapiens, UniProt Q13547); experiment: Inhibition of HDAC1 (unknown origin) using p53 residues 379 to 382 [RHKK(Ac)] as fluorogenic substrate assessed as residual activity at 3.33 x 10^-6M (reference value: 98.06%); conditions: dose 3.33 10^-6M
Sequence of Histone deacetylase 1 (Q13547 whole entry, the tested form may be a part): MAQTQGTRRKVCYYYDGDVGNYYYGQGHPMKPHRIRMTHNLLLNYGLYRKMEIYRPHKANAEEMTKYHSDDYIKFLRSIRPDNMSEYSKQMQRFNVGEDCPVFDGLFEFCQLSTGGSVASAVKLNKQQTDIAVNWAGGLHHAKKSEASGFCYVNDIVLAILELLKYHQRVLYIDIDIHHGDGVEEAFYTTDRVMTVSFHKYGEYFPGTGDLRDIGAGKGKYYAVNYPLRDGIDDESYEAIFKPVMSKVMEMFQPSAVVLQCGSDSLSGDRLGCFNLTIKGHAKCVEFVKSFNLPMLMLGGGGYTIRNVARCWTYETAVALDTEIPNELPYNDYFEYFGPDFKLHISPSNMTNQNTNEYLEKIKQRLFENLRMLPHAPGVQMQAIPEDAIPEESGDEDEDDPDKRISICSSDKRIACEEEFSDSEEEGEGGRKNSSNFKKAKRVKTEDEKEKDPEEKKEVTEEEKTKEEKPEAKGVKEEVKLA

[4] = biological target: Histone deacetylase 5 (Homo sapiens) (UniProt Q9UQL6); experiment: Inhibition of HDAC5 (unknown origin) assessed as residual activity at 3.70 x 10^-7M (reference value: 100%); conditions: dose 3.7 10^-7M
Sequence of Histone deacetylase 5 (Homo sapiens) (Q9UQL6 whole entry): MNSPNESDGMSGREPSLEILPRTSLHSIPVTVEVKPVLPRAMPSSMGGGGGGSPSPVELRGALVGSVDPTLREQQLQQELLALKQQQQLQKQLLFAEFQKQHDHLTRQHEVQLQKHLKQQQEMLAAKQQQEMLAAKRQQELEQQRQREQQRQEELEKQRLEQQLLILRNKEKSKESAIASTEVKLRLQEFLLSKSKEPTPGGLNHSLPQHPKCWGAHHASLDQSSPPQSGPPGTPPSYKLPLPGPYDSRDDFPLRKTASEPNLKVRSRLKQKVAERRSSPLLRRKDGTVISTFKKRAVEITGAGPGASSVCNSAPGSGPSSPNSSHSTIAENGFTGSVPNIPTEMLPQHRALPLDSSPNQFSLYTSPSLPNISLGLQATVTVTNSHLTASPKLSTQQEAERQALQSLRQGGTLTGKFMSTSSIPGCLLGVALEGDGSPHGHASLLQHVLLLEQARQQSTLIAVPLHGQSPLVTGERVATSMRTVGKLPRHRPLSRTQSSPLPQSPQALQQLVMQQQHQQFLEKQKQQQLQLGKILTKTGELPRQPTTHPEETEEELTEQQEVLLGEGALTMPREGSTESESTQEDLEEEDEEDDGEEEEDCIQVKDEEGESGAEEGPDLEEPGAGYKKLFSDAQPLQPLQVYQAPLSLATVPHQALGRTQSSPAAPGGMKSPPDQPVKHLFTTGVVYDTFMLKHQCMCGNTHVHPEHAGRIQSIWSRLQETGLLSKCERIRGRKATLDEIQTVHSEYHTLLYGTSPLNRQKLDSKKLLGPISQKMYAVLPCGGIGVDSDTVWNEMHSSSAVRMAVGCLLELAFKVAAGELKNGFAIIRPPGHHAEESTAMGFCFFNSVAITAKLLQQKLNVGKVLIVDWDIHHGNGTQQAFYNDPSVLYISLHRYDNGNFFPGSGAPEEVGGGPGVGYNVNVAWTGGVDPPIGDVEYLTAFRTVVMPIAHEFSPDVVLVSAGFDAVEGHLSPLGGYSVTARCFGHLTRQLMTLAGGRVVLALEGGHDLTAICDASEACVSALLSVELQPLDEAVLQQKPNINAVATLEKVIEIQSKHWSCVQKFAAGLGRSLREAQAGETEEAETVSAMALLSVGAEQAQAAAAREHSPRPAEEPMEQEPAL

[5] = biological target: T1, Histone deacetylase 7 (Homo sapiens) (UniProt Q8WUI4); experiment: Inhibition of HDAC7 (unknown origin) assessed as residual activity at 1.1 x 10^-6M (reference value: 102.66%); conditions: dose 1.1 10^-6M
T1 sequence (whole entry): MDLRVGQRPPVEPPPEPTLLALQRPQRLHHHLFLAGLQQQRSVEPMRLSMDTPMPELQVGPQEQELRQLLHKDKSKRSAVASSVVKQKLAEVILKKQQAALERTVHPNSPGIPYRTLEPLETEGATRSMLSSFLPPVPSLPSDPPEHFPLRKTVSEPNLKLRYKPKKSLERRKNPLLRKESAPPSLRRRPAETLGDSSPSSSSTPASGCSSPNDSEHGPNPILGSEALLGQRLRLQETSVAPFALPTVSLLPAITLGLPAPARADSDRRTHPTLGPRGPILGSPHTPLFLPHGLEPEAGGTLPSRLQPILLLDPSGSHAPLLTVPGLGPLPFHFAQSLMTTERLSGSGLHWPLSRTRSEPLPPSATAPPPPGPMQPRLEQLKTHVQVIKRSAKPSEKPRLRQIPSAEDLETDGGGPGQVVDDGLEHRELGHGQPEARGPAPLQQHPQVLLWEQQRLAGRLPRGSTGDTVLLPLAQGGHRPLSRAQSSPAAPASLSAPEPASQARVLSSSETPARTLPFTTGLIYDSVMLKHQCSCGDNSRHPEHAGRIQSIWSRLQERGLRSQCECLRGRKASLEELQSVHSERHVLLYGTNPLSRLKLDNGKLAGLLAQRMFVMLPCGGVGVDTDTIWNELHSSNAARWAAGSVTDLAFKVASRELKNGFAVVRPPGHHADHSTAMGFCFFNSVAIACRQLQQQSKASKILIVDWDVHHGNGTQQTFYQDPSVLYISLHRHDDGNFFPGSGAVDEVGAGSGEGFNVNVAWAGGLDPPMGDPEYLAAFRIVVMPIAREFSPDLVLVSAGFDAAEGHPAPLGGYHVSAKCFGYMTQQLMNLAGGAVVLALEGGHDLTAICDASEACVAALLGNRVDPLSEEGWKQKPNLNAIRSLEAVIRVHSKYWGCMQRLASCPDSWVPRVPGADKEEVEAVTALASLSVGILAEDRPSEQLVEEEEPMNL

[6] = biological target: Histone deacetylase 4 (Homo sapiens) (UniProt P56524); experiment: Inhibition of HDAC4 (unknown origin) assessed as residual activity at 4.12 x 10^-8M (reference value: 98.90%); conditions: dose 4.12 10^-8M
Sequence of Histone deacetylase 4 (Homo sapiens) (P56524 whole entry): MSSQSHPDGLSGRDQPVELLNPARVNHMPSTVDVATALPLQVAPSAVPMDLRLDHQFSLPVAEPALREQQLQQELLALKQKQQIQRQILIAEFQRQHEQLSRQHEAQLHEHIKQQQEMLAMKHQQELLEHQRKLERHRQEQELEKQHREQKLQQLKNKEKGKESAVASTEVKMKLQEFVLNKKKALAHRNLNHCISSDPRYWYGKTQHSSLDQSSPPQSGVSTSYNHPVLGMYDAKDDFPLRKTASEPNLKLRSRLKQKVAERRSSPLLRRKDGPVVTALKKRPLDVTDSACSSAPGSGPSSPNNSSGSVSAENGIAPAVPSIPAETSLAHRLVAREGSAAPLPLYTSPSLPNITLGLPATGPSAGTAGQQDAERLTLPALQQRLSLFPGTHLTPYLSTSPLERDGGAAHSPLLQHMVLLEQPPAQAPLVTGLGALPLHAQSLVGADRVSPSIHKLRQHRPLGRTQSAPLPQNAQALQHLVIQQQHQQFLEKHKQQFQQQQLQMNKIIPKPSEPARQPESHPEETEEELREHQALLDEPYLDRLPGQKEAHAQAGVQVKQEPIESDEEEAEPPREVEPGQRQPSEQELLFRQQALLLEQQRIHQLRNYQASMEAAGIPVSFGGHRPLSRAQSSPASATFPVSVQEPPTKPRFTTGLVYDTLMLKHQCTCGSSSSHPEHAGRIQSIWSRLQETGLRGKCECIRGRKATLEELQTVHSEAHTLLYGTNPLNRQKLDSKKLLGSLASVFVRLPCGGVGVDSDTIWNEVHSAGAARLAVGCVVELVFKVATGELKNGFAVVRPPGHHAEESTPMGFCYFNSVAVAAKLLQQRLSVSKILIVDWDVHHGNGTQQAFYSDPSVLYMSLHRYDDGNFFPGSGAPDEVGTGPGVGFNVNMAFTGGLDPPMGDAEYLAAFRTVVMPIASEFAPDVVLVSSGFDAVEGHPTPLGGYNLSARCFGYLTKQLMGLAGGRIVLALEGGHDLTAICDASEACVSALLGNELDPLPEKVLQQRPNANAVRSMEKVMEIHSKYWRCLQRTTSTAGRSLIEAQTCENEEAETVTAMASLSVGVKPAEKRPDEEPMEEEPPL

## NC(=O)c1cccc2[nH]c(-c3ccc(NCc4ccc(C(=O)Nc5ccccc5N)cc4)cc3)nc12
HL-60 [1]
  Activity: Active
A549
  pIC50: < 5.30
HL-60 [2]
  Activity: Active
[3]
  Activity: 88.5%
Histone deacetylase 2
  Activity: 69.7%
Histone deacetylase 1
  Activity: 6.73%
[4]
  Activity: 77.6%
[5]
  Activity: 78.2%
[6]
  Activity: 96%
